Measured values as given in US10179782B2, “Substituted sulfonamide compounds” (Genentech, Inc., priority 2016, dated 2019).

What follows are molecules tested against T1, human TRPA1 (Homo sapiens, UniProt O75762) (assay: TRPA1 FLIPR Tetra calcium influx assay in CHO cells (block of cinnamaldehyde-induced calcium influx)). Conditions: Table 2; CHO cells expressing TRPA1; agonist cinnamaldehyde 75 uM; 20 min compound incubation; Hill coefficient fixed to 1.5; read-out: hTRPA1 CHO Ca2+ AUC EVO (IC50).
T1 construct: expressed in transfected cells; host or cells: CHO cells
T1 sequence (O75762 whole entry): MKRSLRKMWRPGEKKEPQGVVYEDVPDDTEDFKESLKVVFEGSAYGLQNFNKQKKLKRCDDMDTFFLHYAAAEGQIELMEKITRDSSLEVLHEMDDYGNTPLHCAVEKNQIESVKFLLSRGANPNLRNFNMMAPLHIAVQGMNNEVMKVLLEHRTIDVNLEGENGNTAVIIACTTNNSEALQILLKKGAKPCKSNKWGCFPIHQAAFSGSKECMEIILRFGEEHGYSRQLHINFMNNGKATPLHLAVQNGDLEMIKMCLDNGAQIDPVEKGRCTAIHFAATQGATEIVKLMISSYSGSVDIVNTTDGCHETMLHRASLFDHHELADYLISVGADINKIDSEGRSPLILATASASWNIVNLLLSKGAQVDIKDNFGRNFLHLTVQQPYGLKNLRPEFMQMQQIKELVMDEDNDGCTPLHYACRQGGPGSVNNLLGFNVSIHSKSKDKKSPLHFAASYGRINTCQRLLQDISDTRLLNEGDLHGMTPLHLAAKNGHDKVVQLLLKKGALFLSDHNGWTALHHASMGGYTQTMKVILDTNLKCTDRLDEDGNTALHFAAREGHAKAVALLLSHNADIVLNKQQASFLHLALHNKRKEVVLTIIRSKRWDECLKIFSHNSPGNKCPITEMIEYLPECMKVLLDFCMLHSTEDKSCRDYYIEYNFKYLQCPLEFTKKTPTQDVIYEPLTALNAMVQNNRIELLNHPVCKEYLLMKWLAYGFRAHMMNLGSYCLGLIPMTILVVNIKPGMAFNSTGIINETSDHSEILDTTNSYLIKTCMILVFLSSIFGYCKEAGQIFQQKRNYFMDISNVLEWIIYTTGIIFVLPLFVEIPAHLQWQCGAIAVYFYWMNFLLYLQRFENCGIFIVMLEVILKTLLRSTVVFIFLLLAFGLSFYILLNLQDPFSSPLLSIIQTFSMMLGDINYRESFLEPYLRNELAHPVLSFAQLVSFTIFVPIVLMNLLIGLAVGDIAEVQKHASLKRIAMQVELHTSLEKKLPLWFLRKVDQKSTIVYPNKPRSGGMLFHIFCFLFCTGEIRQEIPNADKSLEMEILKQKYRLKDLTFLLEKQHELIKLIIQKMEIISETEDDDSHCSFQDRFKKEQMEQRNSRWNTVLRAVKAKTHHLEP
Format: cell-based
In short: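 CHO cells expressing TRPA1 were loaded with calcium dye in HBSS/20 mM HEPES, pH 7.4, 0.02% BSA, then given compound for 20 min at room temperature before ~EC80 cinnamaldehyde (75 µM human, 45 µM rat). Block of calcium influx was read on FLIPR Tetra; IC50 fitted with Hill coefficient fixed at 1.5.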
Molecule `C[C@H]1[C@H](F)C[C@@H](C(=O)NCc2cc(-c3cnc(C(F)(F)F)nc3)c(C(F)F)cn2)N1S(=O)(=O)c1ccc(F)cc1` [Example 133, (2S,4R,5S)-N-[[5-(difluoromethyl)-4-[2-(trifluoromethyl)pyrimidin-5-yl]-2-pyridyl]methyl]-4-fluoro-1-(4-fluorophenyl)sulfonyl-5-methyl-pyrrolidine-2-carboxamide] has an IC50 of 30.5 nM.
With `C[C@H]1[C@H](F)C[C@@H](C(=O)NCc2cc(-c3cnc(C(F)(F)F)c(C#N)c3)ncc2F)N1S(=O)(=O)c1ccc(F)cc1` [Example 134, (2S,4R,5S)-N-[[2-[5-cyano-6-(trifluoromethyl)-3-pyridyl]-5-fluoro-4-pyridyl]methyl]-4-fluoro-1-(4-fluorophenyl)sulfonyl-5-methyl-pyrrolidine-2-carboxamide] the IC50 was 32.6 nM.
With `C[C@H]1[C@H](F)C[C@@H](C(=O)NCc2nc(-c3cnc(C(F)(F)F)nc3)ncc2C(F)(F)F)N1S(=O)(=O)c1ccc(F)cc1` [Example 135, (2S,4R,5S)-4-fluoro-1-(4-fluorophenyl)sulfonyl-5-methyl-N-[[5-(trifluoromethyl)-2-[2-(trifluoromethyl)pyrimidin-5-yl]pyrimidin-4-yl]methyl]pyrrolidine-2-carboxamide] the IC50 was 19.3 nM.
`C[C@H]1[C@H](F)C[C@@H](C(=O)NCc2cc(-c3cnc(C(F)(F)F)nc3)ncc2CC(F)(F)F)N1S(=O)(=O)c1ccc(F)cc1` [Example 136, (2S,4R,5S)-4-fluoro-1-(4-fluorophenyl)sulfonyl-5-methyl-N-[[5-(2,2,2-trifluoroethyl)-2-[2-(trifluoromethyl)pyrimidin-5-yl]-4-pyridyl]methyl]pyrrolidine-2-carboxamide] gave an IC50 of 8.11 nM.
`C[C@H]1[C@H](F)C[C@@H](C(=O)NCc2cc(-c3cnc(C(F)(F)F)nc3)nc(C3CC3)c2C(F)(F)F)N1S(=O)(=O)c1ccc(F)cc1` [Example 137, (2S,4R,5S)-N-[[2-cyclopropyl-3-(trifluoromethyl)-6-[2-(trifluoromethyl)pyrimidin-5-yl]-4-pyridyl]methyl]-4-fluoro-1-(4-fluorophenyl)sulfonyl-5-methyl-pyrrolidine-2-carboxamide] gave an IC50 of 0.7 nM.
`C[C@H]1[C@H](F)C[C@@H](C(=O)NCc2cc(-c3cnc(C(F)(F)F)nc3)ncc2CF)N1S(=O)(=O)c1ccc(F)cc1` [Example 138] was tested, and the IC50 was 11.7 nM.
Molecule `C[C@H]1[C@H](F)C[C@@H](C(=O)NCc2cc(-c3ccc(C(F)(F)F)cc3)ncc2OC(F)(F)F)N1S(=O)(=O)c1ccc(F)cc1` [Example 139, (2S,4R,5S)-4-fluoro-1-(4-fluorophenyl)sulfonyl-5-methyl-N-[[5-(trifluoromethoxy)-2-[4-(trifluoromethyl)phenyl]-4-pyridyl]methyl]pyrrolidine-2-carboxamide] has an IC50 of 2.77 nM.
`C[C@H]1[C@H](F)C[C@@H](C(=O)NCc2cc([C@H]3C[C@H](OC(F)(F)F)C3)ncc2F)N1S(=O)(=O)c1ccc(F)cc1` [Example 140, (2S,4R,5S)-4-fluoro-1-(4-fluorophenyl)sulfonyl-N-[[5-fluoro-2-[3-(trifluoromethoxy)cyclobutyl]-4-pyridyl]methyl]-5-methyl-pyrrolidine-2-carboxamide] showed an IC50 of 3.56 nM.
`C[C@H]1[C@H](F)C[C@@H](C(=O)NCc2cc(-c3cnc(C4CC4)nc3)ncc2F)N1S(=O)(=O)c1ccc(F)cc1` [Example 141, (2S,4R,5S)-N-[[2-(2-cyclopropylpyrimidin-5-yl)-5-fluoro-4-pyridyl]methyl]-4-fluoro-1-(4-fluorophenyl)sulfonyl-5-methyl-pyrrolidine-2-carboxamide] showed an IC50 of 20.4 nM.
In the case of `C[C@H]1[C@H](F)C[C@@H](C(=O)NCc2cc(-c3cnc(C(F)(F)F)nc3)c(C#N)c(C3CC3)n2)N1S(=O)(=O)c1ccc(F)cc1` [Example 142, (2S,4R,5S)—N-([5-cyano-6-cyclopropyl-4-[2-(trifluoromethyl)pyrimidin-5-yl]pyridin-2-yl]methyl)-4-fluoro-1-[(4-fluorobenzene)sulfonyl]-5-methylpyrrolidine-2-carboxamide], the IC50 is reported as 12 nM.
For `C[C@H]1[C@H](F)C[C@@H](C(=O)NCc2cc(OCCC3(C(F)(F)F)CC3)nc(C3CC3)n2)N1S(=O)(=O)c1ccc(F)cc1` [Example 143, (2S,4R,5S)-N-[[2-cyclopropyl-6-[2-[1-(trifluoromethyl)cyclopropyl]ethoxy]pyrimidin-4-yl]methyl]-4-fluoro-1-(4-fluorophenyl)sulfonyl-5-methyl-pyrrolidine-2-carboxamide], the IC50 was 22.4 nM.
In the case of `C[C@H]1[C@H](F)C[C@@H](C(=O)NCc2cc(-c3cnc(C(F)(F)F)c(F)c3)c(F)cn2)N1S(=O)(=O)c1ccc(F)cc1` [Example 144, (2S,4R,5S)-4-fluoro-N-[[5-fluoro-4-[5-fluoro-6-(trifluoromethyl)-3-pyridyl]-2-pyridyl]methyl]-1-(4-fluorophenyl)sulfonyl-5-methyl-pyrrolidine-2-carboxamide], the IC50 is reported as 17 nM.
`C[C@H]1[C@H](F)C[C@@H](C(=O)NCc2cc(N3CC[C@H](OC(F)(F)F)C(F)(F)C3)ncc2F)N1S(=O)(=O)c1ccc(F)cc1` [Example 145, (2S,4R,5S)-N-[[2-[(4S)-3,3-difluoro-4-(trifluoromethoxy)-1-piperidyl]-5-fluoro-4-pyridyl]methyl]-4-fluoro-1-(4-fluorophenyl)sulfonyl-5-methyl-pyrrolidine-2-carboxamide] gave an IC50 of 8.36 nM.
Molecule `C[C@H]1[C@H](F)C[C@@H](C(=O)NCc2cc(-c3cnc(C(F)(F)F)nc3)c(OC(F)F)cn2)N1S(=O)(=O)c1ccc(F)cc1` [Example 146, (2S,4R,5S)-N-[[5-(difluoromethoxy)-4-[2-(trifluoromethyl)pyrimidin-5-yl]-2-pyridyl]methyl]-4-fluoro-1-(4-fluorophenyl)sulfonyl-5-methyl-pyrrolidine-2-carboxamide] has an IC50 of 35 nM.
`C[C@H]1[C@H](F)C[C@@H](C(=O)NCc2cn([C@H]3CC[C@H](C(F)(F)F)CC3)nc2C(F)(F)F)N1S(=O)(=O)c1ccc(F)cc1` [Example 147, (2S,4R,5S)-4-fluoro-1-(4-fluorophenyl)sulfonyl-5-methyl-N-[[3-(trifluoromethyl)-1-[4-(trifluoromethyl)cyclohexyl]pyrazol-4-yl]methyl]pyrrolidine-2-carboxamide] was tested, and the IC50 was 24.5 nM.
With `C[C@H]1[C@H](F)C[C@@H](C(=O)NCc2cn(-c3cnc(C(F)(F)F)s3)nc2Cl)N1S(=O)(=O)c1ccc(F)cc1` [Example 148, (4R,5S)-N-[[3-chloro-1-[2-(trifluoromethyl)thiazol-5-yl]pyrazol-4-yl]methyl]-4-fluoro-1-(4-fluorophenyl)sulfonyl-5-methyl-pyrrolidine-2-carboxamide] the IC50 was 7.64 nM.
In the case of `O=C(NCc1cc(-c2cnc(C(F)(F)F)nc2)ncc1C(F)(F)F)[C@@H]1[C@H]2C[C@H]2CN1S(=O)(=O)c1ccc(F)cc1` [Example 149, (1S,2S,5R)-3-(4-fluorophenyl)sulfonyl-N-[[5-(trifluoromethyl)-2-[2-(trifluoromethyl)pyrimidin-5-yl]-4-pyridyl]methyl]-3-azabicyclo[3.1.0]hexane-2-carboxamide], the IC50 is reported as 0.756 nM.
`O=C(NCc1cc(-c2cnc(C(F)(F)F)nc2)ncc1C(F)F)[C@@H]1[C@H]2C[C@H]2CN1S(=O)(=O)c1ccc(F)cc1` [Example 150, (1R,4S,5S)-N-[[5-(difluoromethyl)-2-[2-(trifluoromethyl)pyrimidin-5-yl]-4-pyridyl]methyl]-3-(4-fluorophenyl)sulfonyl-3-azabicyclo[3.1.0]hexane-4-carboxamide] showed an IC50 of 5.72 nM.
In the case of `O=C(NCc1cc(-c2cnc(C(F)(F)F)nc2)nc(C2CC2)n1)[C@@H]1[C@H]2C[C@H]2CN1S(=O)(=O)c1ccc(F)cc1` [Example 151, (1S,2S,5R)-N-[[2-cyclopropyl-6-[2-(trifluoromethyl)pyrimidin-5-yl]pyrimidin-4-yl]-methyl]-3-(4-fluorophenyl)sulfonyl-3-azabicyclo[3.1.0]hexane-2-carboxamide], the IC50 is reported as 1 nM.
For `C[C@H]1[C@H](F)C[C@@H](C(=O)NCc2cc(-c3cnc(C(F)(F)F)nc3)cnc2C(F)(F)F)N1S(=O)(=O)c1ccc(F)cc1` [Example 152, (2S,4R,5S)-4-fluoro-1-(4-fluorophenyl)sulfonyl-5-methyl-N-[[2-(trifluoromethyl)-5-[2-(trifluoromethyl)pyrimidin-5-yl]-3-pyridyl]methyl]pyrrolidine-2-carboxamide], the IC50 was 3.03 nM.
In the case of `C[C@H]1[C@H](F)C[C@@H](C(=O)NCc2cc(-c3cnc(C(F)(F)F)nc3)ncc2C(F)(F)F)N1S(=O)(=O)c1cc2cc(F)ccc2o1` [Example 153, (2S,4R,5S)-4-fluoro-1-(5-fluorobenzofuran-2-yl)sulfonyl-5-methyl-N-[[5-(trifluoromethyl)-2-[2-(trifluoromethyl)pyrimidin-5-yl]-4-pyridyl]methyl]pyrrolidine-2-carboxamide], the IC50 is reported as 0.229 nM.
Molecule `C[C@H]1[C@H](F)C[C@@H](C(=O)NCc2cc(-c3cnc(C(F)(F)F)nc3)ncc2F)N1S(=O)(=O)c1cc2cc(F)ccc2o1` [Example 154, (2S,4R,5S)-4-fluoro-1-(5-fluorobenzofuran-2-yl)sulfonyl-N-[[5-fluoro-2-[2-(trifluoromethyl)pyrimidin-5-yl]-4-pyridyl]methyl]-5-methyl-pyrrolidine-2-carboxamide] has an IC50 of 0.89 nM.
`C[C@@]1(F)C[C@@H](C(=O)NCc2cc(-c3cnc(C(F)(F)F)nc3)ncc2C(F)(F)F)N(S(=O)(=O)c2ccc(F)cc2)C1` [Example 155, (2S,4R)-4-fluoro-1-(4-fluorophenyl)sulfonyl-4-methyl-N-[[5-(trifluoromethyl)-2-[2-(trifluoromethyl)pyrimidin-5-yl]-4-pyridyl]methyl]pyrrolidine-2-carboxamide] gave an IC50 of 4.24 nM.
Molecule `C[C@@]1(F)C[C@@H](C(=O)NCc2cc(-c3cnc(C(F)(F)F)nc3)ncc2C(F)(F)F)N(S(=O)(=O)c2cc3cc(F)ccc3o2)C1` [Example 156, (2S,4R)-4-fluoro-1-(5-fluorobenzofuran-2-yl)sulfonyl-4-methyl-N-[[5-(trifluoromethyl)-2-[2-(trifluoromethyl)pyrimidin-5-yl]-4-pyridyl]methyl]pyrrolidine-2-carboxamide] has an IC50 of 1.93 nM.
